Experiment [1] addresses CDC7 (Homo sapiens, UniProt O00311). The experiment can be described thus: CDC7 inhibition, biochemical chemiluminescence assay (Kinase Glo, IC50 determination). In short, it runs like this: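 CDC7 enzyme preincubated with compound 10 min at ambient temperature, then ATP mix in Tris Base added; reaction 90 min at 24-27 °C. Remaining ATP quantified by Kinase Glo luminescence to give IC50.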

In experiment [2] the target is PIM (PIM-1, PIM-2, and/or PIM-3). The experiment can be described thus: PIM-1, PIM-2 and PIM-3 inhibition, biochemical chemiluminescence assays (Kinase Glo, IC50 determination). Particulars: Table 1 activity class; PIM refers to PIM-1, PIM-2, and/or PIM-3; read-out: PIM IC50 (Activity B). (Kinase-Glo reads ATP consumption through a luciferase reaction.)
Experiment [3] concerns the target CK2 (Homo sapiens, UniProt P68400). The experiment can be described thus: CK2 inhibition, biochemical chemiluminescence holoenzyme assay (Kinase Glo, IC50 determination). An outline of the steps: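 Holoenzyme CK2 assay; compounds pre-incubated with substrate and enzyme, then reacted 150 min at 24-27° C. Remaining ATP measured as luminescence with Kinase Glo, and IC50 derived from the signal.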

Where [4] appears, read: Table 1 activity class, symbol given only if active, read-out: CDC7 IC50 (Activity A).
Setting [5] is: Table 1 activity class, symbol given only if active, read-out: CK2 IC50 (Activity C).
The mark [6] stands for this setting: compounds in Table 1, read-out: CDC7 IC50 value.

Like-named read-outs stand apart in the source and are kept apart here.

Chain of CDC7 (O00311 whole entry): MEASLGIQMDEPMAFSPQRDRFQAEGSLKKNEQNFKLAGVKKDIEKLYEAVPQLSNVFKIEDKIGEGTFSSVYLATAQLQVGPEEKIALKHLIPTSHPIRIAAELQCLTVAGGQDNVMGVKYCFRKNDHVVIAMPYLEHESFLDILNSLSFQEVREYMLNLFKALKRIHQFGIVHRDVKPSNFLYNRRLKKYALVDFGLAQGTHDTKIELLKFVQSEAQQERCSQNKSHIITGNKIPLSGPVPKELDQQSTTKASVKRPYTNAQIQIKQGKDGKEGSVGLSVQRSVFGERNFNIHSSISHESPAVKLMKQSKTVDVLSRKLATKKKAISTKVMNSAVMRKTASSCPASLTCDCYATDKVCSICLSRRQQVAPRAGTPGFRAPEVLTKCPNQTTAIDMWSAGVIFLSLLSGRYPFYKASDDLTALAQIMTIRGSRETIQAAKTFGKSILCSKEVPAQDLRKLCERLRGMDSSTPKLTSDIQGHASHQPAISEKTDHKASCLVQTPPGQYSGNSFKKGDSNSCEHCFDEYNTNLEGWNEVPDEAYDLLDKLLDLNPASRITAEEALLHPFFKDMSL
Chain of CDC7 (Q9UBU7 whole entry partner): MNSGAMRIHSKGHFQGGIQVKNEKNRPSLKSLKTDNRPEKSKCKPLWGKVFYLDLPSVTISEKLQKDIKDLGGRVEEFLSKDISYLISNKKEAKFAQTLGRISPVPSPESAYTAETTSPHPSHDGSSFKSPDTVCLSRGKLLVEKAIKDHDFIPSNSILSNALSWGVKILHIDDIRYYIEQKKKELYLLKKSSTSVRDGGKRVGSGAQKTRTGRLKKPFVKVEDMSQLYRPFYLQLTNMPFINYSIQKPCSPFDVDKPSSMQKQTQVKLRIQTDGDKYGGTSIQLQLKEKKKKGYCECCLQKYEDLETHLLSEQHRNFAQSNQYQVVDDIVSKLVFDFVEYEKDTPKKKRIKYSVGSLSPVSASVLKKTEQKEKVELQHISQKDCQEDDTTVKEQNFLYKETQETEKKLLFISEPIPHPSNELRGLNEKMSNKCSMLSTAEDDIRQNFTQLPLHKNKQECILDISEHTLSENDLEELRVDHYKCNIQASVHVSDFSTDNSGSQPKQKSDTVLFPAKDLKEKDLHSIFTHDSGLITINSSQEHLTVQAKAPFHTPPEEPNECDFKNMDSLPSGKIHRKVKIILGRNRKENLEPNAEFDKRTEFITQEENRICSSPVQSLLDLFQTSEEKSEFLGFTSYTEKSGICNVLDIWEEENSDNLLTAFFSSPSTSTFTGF
Chain of CK2 (P68400 whole entry): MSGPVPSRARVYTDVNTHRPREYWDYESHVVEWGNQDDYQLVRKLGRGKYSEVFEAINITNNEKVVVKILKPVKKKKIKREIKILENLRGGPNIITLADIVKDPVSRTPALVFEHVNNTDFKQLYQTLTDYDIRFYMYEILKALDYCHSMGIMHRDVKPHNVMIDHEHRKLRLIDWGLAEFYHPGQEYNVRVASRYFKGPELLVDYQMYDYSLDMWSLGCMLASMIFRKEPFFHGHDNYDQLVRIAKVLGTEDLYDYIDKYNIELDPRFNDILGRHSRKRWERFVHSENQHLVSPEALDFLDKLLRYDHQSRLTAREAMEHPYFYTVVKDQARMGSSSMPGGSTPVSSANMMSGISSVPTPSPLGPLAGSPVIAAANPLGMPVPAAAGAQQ
Chain of CK2 (P67870 whole entry partner): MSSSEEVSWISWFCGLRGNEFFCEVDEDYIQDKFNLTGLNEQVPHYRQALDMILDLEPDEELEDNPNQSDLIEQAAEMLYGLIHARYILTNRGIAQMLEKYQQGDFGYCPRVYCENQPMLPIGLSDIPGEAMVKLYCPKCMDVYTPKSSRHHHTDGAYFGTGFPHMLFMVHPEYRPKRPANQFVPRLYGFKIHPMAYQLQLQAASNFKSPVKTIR

As usually defined, the IC50 is the concentration at which inhibition is half-maximal. `Cn1ccnc1C(=O)Nc1ccc(-c2nc3c(oc4ccc(Br)cc43)c(=O)[nH]2)c(Cl)c1` [Compound 390, N-[4-(8-bromo-4-oxo-3,4-dihydro[1]benzofuro[3,2-d]pyrimidin-2-yl)-3-chlorophenyl]-1-methyl-1H-imidazole-2-carboxamide]: the concentration for half-maximal inhibition (IC50) in experiment [1] (setting [4]), in experiment [2] and in experiment [3] (setting [5]) was < 10 µM in each case.
Turning to `Cn1ccc(C(=O)Nc2ccc(-c3nc4c(oc5ccc(Br)cc54)c(=O)[nH]3)c(Cl)c2)n1` [Compound 391], the half-maximal inhibitory concentration (IC50) in experiment [1] (setting [4]), in experiment [2] and in experiment [3] (setting [5]) was < 10 µM throughout.
Turning to `Nc1n[nH]c2ccc(C(=O)Nc3ccc(-c4nc5c(oc6ccc(Br)cc65)c(=O)[nH]4)c(Cl)c3)cc12` [Compound 393, ′3-amino-N-[4-(8-bromo-4-oxo-3,4-dihydro[1]benzofuro[3,2-d]pyrimidin-2-yl)-3-chlorophenyl]-1H-indazole-5-carboxamide], the half-maximal inhibitory concentration (IC50) in experiment [1] (setting [4]), in experiment [2] and in experiment [3] (setting [5]) was < 10 µM throughout.
For the compound `NCCNC(=O)c1ccc(C(=O)Nc2ccc(-c3nc4c(oc5ccc(Br)cc54)c(=O)[nH]3)c(Cl)c2)nc1` [Compound 394, ′N′5′-(2-aminoethyl)-N′2′-[4-(8-bromo-4-oxo-3,4-dihydro[1]benzofuro[3,2-d]pyrimidin-2-yl)-3-chlorophenyl]pyridine-2,5-dicarboxamide], the IC50 in experiment [1] (setting [4]), in experiment [2] and in experiment [3] (setting [5]) was < 10 µM in each case.
In the case of `O=C(Nc1ccc(-c2nc3c(oc4ccc(Br)cc43)c(=O)[nH]2)c(Cl)c1)c1cnc2[nH]ccc2c1` [Compound 395, ′N-[4-(8-bromo-4-oxo-3,4-dihydro[1]benzofuro[3,2-d]pyrimidin-2-yl)-3-chlorophenyl]-1H-pyrrolo[2,3-b]pyridine-5-carboxamide], the half-inhibitory concentration (IC50) in experiment [1] (setting [4]), in experiment [2] and in experiment [3] (setting [5]) was < 10 µM in each case.
As for `O=c1[nH]c(CN2C3CCC2CC(O)C3)nc2c1oc1ccc(Br)cc12` (stereo not drawn) [Compound 398, 8-bromo-2-[(3-hydroxy-8-azabicyclo[3.2.1]oct-8-yl)methyl][1]benzofuro[3,2-d]pyrimidin-4(3H)-one], the IC50 is < 10 µM in experiment [1] (CDC7 IC50 (Activity A), Table 1 activity class, symbol given only if active); < 10 µM in experiment [2]; < 10 µM in experiment [3].
For `O=c1[nH]c(CN2CCCC(O)C2)nc2c1oc1ccc(Br)cc12` (stereo not drawn) [Compound 400, 8-bromo-2-[(3-hydroxypiperidin-1-yl)methyl][1]benzofuro[3,2-d]pyrimidin-4(3H)-one], the half-inhibitory concentration (IC50) in experiment [1] (setting [4]) is < 10 µM; in experiment [1] (setting [6]), < 0.1 µM; in experiment [2] it was < 10 µM; in experiment [3] (setting [5]), < 10 µM.
As to `CN(CCO)Cc1nc2c(oc3ccc(Br)cc32)c(=O)[nH]1` [Compound 401, 8-bromo-2-{[(2-hydroxyethyl)(methyl)amino]methyl}[1]benzofuro[3,2-d]pyrimidin-4(3H)-one], the IC50 was < 10 µM in experiment [1] (setting [4]), < 0.1 µM in experiment [1] (setting [6]), < 10 µM in experiment [2] and < 10 µM in experiment [3] (setting [5]).
On to `O=c1[nH]c(CN2CCC[C@H](O)C2)nc2c1oc1ccc(Br)cc12` [Compound 404, 8-bromo-2-{[(3S)-3-hydroxypiperidin-1-yl]methyl}[1]benzofuro[3,2-d]pyrimidin-4(3H)-one], for which the IC50 in experiment [1] (setting [4]) was < 10 µM; in experiment [1] (setting [6]), < 0.1 µM; in experiment [2], < 10 µM; in experiment [3] (setting [5]), < 10 µM.
In the case of `O=C(Nc1ccc(-c2nc3c(oc4ccc(Br)cc43)c(=O)[nH]2)c(Cl)c1)c1csnn1` [Compound 406, N-[4-(8-bromo-4-oxo-3,4-dihydro[1]benzofuro[3,2-d]pyrimidin-2-yl)-3-chlorophenyl]-1,2,3-thiadiazole-4-carboxamide], the IC50 in experiment [1] (setting [4]), in experiment [2] and in experiment [3] (setting [5]) was < 10 µM in each case.

The record behind these values is patent publication US20090247559A1 (Exelixis, Inc., priority 2007, published 2009).
